Test system: mesenchymal stem cell-like cells derived from iPS cells established from a FOP patient (ACVR1 R206H)
Test: Activin-A-induced chondrogenic differentiation of FOP patient-derived cells (sulfated glycosaminoglycan quantification)
Assay type: cell-based
Settings: 100 ng/mL human activin-A, compound 0.01 to 100 nM, six days, P<0.0001 at 0.1-100 nM rapamycin, 1-100 nM everolimus or temsirolimus vs activin-A only
From the text: According to the method of Yamanaka et. al., (Cell, 2007, 131 (5), […]), iPS cells derived from a FOP patient (referred to as “patient-derived iPS cells” in some cases hereafter) were established. […] This mutation is a mutation that replaces the 206th arginine residue into a histidine residue in the amino acid sequence of ACVR1 (the amino acid sequence as set forth in SEQ ID NO:2). In addition, with a view toward using as a control, the mutation of the ACVR1 gene described above was corrected to the normal type (the wild type) by the gene correction with a BAC (Bacterial Artificial Chromosome) knock-in vector, thus establishing corrected iPS cells which may be referred to as “gene-corrected (rescued) iPS cell clone” in some cases hereafter.
The patient-derived iPS cells were cultured on a Matrigel coated plate [manufactured by Becton, Dickinson and Company; trade name, Growth Factor Reduced (GFR) BD MATRIGEL (registered trademark)] in mTeSR1 (manufactured by STEMCELL Technologies Inc.) under a feeder-free condition for two days. […]
These mesenchymal stem cell-like cells were cultured under a condition of a chondrogenic induction medium according to the method of Umeda (Sci. Rep, 2012, 2, 455) for six days and differentiated into chondrocytes. […] Also, compounds for which their inhibitory effect against the chondrogenic differentiation were to be evaluated (concentrations of from 0.01 to 100 nM) were added simultaneously with human activin-A (referred to as “activin-A” in some cases hereafter). […] The degree of differentiation into chondrocytes was measured with a quantification kit for sulfated glycosaminoglycan (manufactured by Biocolor Inc.; trade name, Blyscan Glycosaminoglycan Assay Kit). […]

Row | Compound | chondrogenic differentiation (amount of sulfated glycosaminoglycan)
1 | CO[C@H]1C[C@@H]2CC[C@@H](C)[C@@](O)(O2)C(=O)C(=O)N2CCCC[C@H]2C(=O)O[C@H]([C@H](C)C[C@@H]2CC[C@@H](OCCO)[C@H](OC)C2)CC(=O)[C@H](C)/C=C(\C)[C@@H](O)[C@@H](OC)C(=O)[C@H](C)C[C@H](C)/C=C/C=C/C=C/1C [everolimus] | suppressed the chondrogenic differentiation
2 | CO[C@H]1C[C@@H]2CC[C@@H](C)[C@@](O)(O2)C(=O)C(=O)N2CCCC[C@H]2C(=O)O[C@H]([C@H](C)C[C@@H]2CC[C@@H](OP(C)(C)=O)[C@H](OC)C2)CC(=O)[C@H](C)/C=C(\C)[C@@H](O)[C@@H](OC)C(=O)[C@H](C)C[C@H](C)/C=C/C=C/C=C/1C [ridaforolimus] | suppressed the chondrogenic differentiation
3 | CO[C@H]1C[C@@H]2CC[C@@H](C)[C@@](O)(O2)C(=O)C(=O)N2CCCC[C@H]2C(=O)O[C@H]([C@H](C)C[C@@H]2CC[C@@H](OC(=O)C(C)(CO)CO)[C@H](OC)C2)CC(=O)[C@H](C)/C=C(\C)[C@@H](O)[C@@H](OC)C(=O)[C@H](C)C[C@H](C)/C=C/C=C/C=C/1C [temsirolimus] | suppressed the chondrogenic differentiation

From patent publication US11207303B2, “Therapeutic agent for fibrodysplasia ossificans progressiva” (Kyoto University, priority 2015, dated 2021)
